≈ marks a conversion by molar mass, not a printed value. Entries after “also recorded” stand apart in the source; their conditions may differ. Like-named read-outs stand apart in the source and are kept apart here. Numbered stars: 1 amine (or outer) side, 2 acyl side, 3 side chain; on linkers, the order of the positions; unused ones are H or OH. Bridge positions count the residues as written; N and C are the ends. Square brackets hold non-standard residues; d marks the D form. Ends that are not written are not given here. Peptide text beside a SMILES is read from it. Phe(4-NH2) = Nc1ccc(C[C@H](N)C(=O)O)cc1; Suc = O=C(CCC(=O)[*:2])[*:1]
Legend:
[1] = test system: purified rat peritoneal mast cells; assay: Histamine secretion from intact mast cells incubated with peptide alone (secretagogue side effect); conditions: for Secretagogue (histamine secretion following incubation of mast cell with different concentrations of each peptide): no allergen; for histamine secretion from mast cells on incubation with increasing concentrations of peptide alone: no additional allergen
Method: (§1) Mast cells from the peritoneal cavity of C.R rats were isolated in Tyrode buffer (137 mM NaCl, 2.7 mM KC1, 1 mM MgCl2, 0.4 mM NaH2PO4, 20 mM Hepes, 1.0 mM CaCl2, 5.6 mM glucose, 1 mg/ml BSA, pH 7.2) and purified over a Ficoll gradient. A suspension of washed peritoneal cells was placed over a cushion of 30% Ficoll 400 (Pharmacia Biotech.) in buffered Saline containing 0.1% BSA; and centrifuged at 150O×g for 15 min. The purity of mast cells recovered from the bottom of the tube was >90%, as assessed by toluidine blue staining.
(§2) Purified mast cells (duplicated of 10^5 cells/0.5 ml) were incubated in Tyrode buffer with buffer or with desired concentrations of the indicated peptide for 2 h. at. 37° C. Histamine secretion was subsequently stimulated by the indicated concentration of compound 48/80 (Sigma) dissolved in Tyrode buffer. Incubation with compound 48/80 was carried out for 20 mm.in at 37° C. The reaction was terminated by placing the tubes on ice. The cells were sedimented by centrifugation at 150×g for 5 mm.in and the supernatants were collected. The amount of histamine release was determined as previously described (Aridor et al., 1990). Briefly, cell pellets were lysed using 0.1N NaOH and the volume of each sample was adjusted to 0.5 ml by H2O. Histamine content was assayed using the o-phtalaldehyde (OPT) fluorimetric method (Shore et al., 1959). Aliquots of 0.4 ml from the supernatants and cell lysates were incubated with 1.6 ml H20, 0.4 ml 1N NaOH and 0.1 ml of 10 mg/l ml OPT in methanol, for 4 min at room temperature. The reaction was terminated by the addition of 0.2 ml 3N HCl. Samples were centrifuged at 150×g for 5 min. and 0.2 ml samples were transferred to a 96 well plate. The histamine spectrofluorometric assay was run in microplates using a microplates reader (FL-600, Biotek instruments Winooski, Vt., USA). Samples were excited by light at 340 nm and read at 440 nm. Histamine release was calculated as the percentage of total histamine content (supernatant/pellet+supernatant) in each sample. Each data point represents the average of duplicate measurements. The spontaneously released histamine was subtracted.

[2] = test system: abdominal skin of C.R rats; assay: Rat skin test: intradermal injection of peptide, then intradermal compound 48/80 or vehicle, wheal area; format: in vivo; conditions: for Mean Wheal Area ± STD, Vehicle: vehicle instead of compound 48/80
Summary of the method: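 Peptide was injected intradermally (20 μl, in 10% DMSO/saline) at 20 or 200 μg; after 0.5 or 1 h, 20 μl compound 48/80 (0.1 mg/ml) or vehicle was injected intradermally at the same site. Wheal outlines were traced and areas measured by planimeter, reported as mean wheal area.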

[3] = test system: purified rat peritoneal mast cells; format: cell-based; conditions: for Inhibitor (degree of inhibition of histamine secretion from mast cells): Table 1, incubation with different concentrations of each peptide, then induction of the allergic reaction
Summary of the method: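 Intact purified rat peritoneal mast cells were incubated at 37° C with increasing peptide concentrations, then stimulated with 5 μg/ml compound 48/80 (maximal release). Histamine secretion is expressed as % of total cellular histamine after subtracting spontaneous release, as the mean of duplicates.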

[4] = Peptide solubility (remarks; assay medium, Tyrode buffer); format: physicochemical
[5] = test system: rat peritoneal mast cells; assay: Inhibition of IgE dependent (DNP-specific IgE / DNP-BSA) histamine secretion; format: cell-based
Method: Peptides 2 and 2-Suc were also tested in vitro for their ability to block histamine secretion from rat peritoneal mast cells, in response to the IgE-dependent mechanism. The IgE dependent pathway is activated in response to an immunological trigger, brought about by aggregation of the high affinity receptors (FeεRI) for IgE, which are present on the cell surface of mast cells. This response involves crosslinking of cell bound IgE antibodies by the corresponding antigens (allergens).
Isolated, purified mast cells were sensitized in the presence of a monoclonal DNP-specific IgE antibody (1 μg/10^6 cells) for 1 hour at 37° C. The cells were washed 3 times and incubated for 2 hours with different concentrations of each peptide, followed by triggering with the antigen DNP-BSA (100 ng/ml) in the presence of Brain Extract (0.1 mg/ml), for 20 min. at 37° C. Placing the tubes in ice terminated the reaction. The amount of histamine released from the cells was monitored.

[6] = test system: purified rat peritoneal mast cells
Method: as §1, §2

[7] = intradermal peptide 1 mg/ml, 0.5 hour before allergic induction
[8] = intradermal peptide 1 mg/ml, 0.5 hour before
[9] = intradermal peptide 1 mg/ml, 1 hour before allergic induction
[10] = intradermal peptide 1 mg/ml, 1 hour before
[11] = intradermal peptide 10 mg/ml, 0.5 hour before allergic induction
[12] = intradermal peptide 10 mg/ml, 0.5 hour before
[13] = intradermal peptide 10 mg/ml, 1 hour before allergic induction
[14] = intradermal peptide 10 mg/ml, 1 hour before
[15] = intradermal peptide 0.5 hour before allergic induction
[16] = intradermal peptide, lower dose or 1 hour before allergic induction

In the case of CC(C)C[C@@H]1NC(=O)CNC(=O)[C@H](CS)NC(=O)[C@H](CCC(=O)O)NC(=O)[C@H](CCCCN)NC(=O)[C@H](CC(C)C)NC(=O)[C@H](CC(N)=O)NC(=O)[C@H](CC(N)=O)NC(=O)[C@@H](NC(=O)[C@@H]2CCCN2C(=O)[C@H](C)NC(=O)[C@H](CC(C)C)NC(=O)[C@H](CC(C)C)NC(=O)[C@H](C)NC(=O)[C@H](CC(C)C)NC(=O)[C@H](CC(C)C)NC(=O)[C@@H](NC(=O)[C@H](C)NC(=O)[C@@H]2CCCN2C(=O)[C@H](CC(C)C)NC(=O)[C@H](CC(C)C)NC(=O)[C@H](C)NC(=O)[C@@H](NC(=O)[C@H](C)NC(=O)[C@H](C)N)C(C)C)C(C)C)CCCCNC(=O)[C@H](Cc2ccc(O)cc2)NC1=O [Peptide 2-Cyc] (H-AAVALLPAVLLALLAPKNNLKECGLY; lactam 17-C; N-terminus assumed), the “side effects of histamine secretion in mast cells, peptide alone” value ([1]; at a concentration of 100 μg/ml) is reported as “only minor side effects of histamine secretion”, the “block of compound 48/80 induced allergic reaction in vivo, rat skin” value ([2]; intradermal peptide) is reported as “less effective than peptide 2” and the “Mean Wheal Area ± STD, Compound 48/80” value [2, 7] is reported as 104.4 ± 45.8 (n = 5) mm^2. For the same compound, the “Mean Wheal Area ± STD, Vehicle” value [2, 8] was 61.4 ± 30.9 (n = 5) mm^2, the “Mean Wheal Area ± STD, Compound 48/80” value [2, 9] was 84.5 ± 29.7 (n = 6) mm^2 and the “Mean Wheal Area ± STD, Vehicle” value [2, 10] was 54.6 ± 12.1 (n = 6) mm^2. The “Mean Wheal Area ± STD, Compound 48/80” value [2, 11] was 82.6 ± 50.6 (n = 5) mm^2, the “Mean Wheal Area ± STD, Vehicle” value [2, 12] was 58.8 ± 29.6 (n = 5) mm^2 and the “Mean Wheal Area ± STD, Compound 48/80” value [2, 13] was 75.3 ± 28.4. (n = 6) mm^2. The “Mean Wheal Area ± STD, Vehicle” value [2, 14] was 45.0 ± 7.9 (n = 6) mm^2, the “reduction of compound 48/80 induced allergic reaction” value (“reduction” below) [2, 15] was “significant decrease in wheal area” and the “reduction” value [2, 16] was “had no effect”. For the same compound, the “Inhibitor (degree of inhibition of histamine secretion from mast cells)” value [3] was “+ (+ Poor inhibitor (<50% inhibition))”, the “effect on compound 48/80 induced histamine secretion” value ([3]; range of peptide concentrations tested) was “only limited potential to block compound 48/80 induced histamine secretion” and the “solubility” value [4] was “very poor solubility”.

In the case of CC(C)C[C@H](NC(=O)CNC(=O)[C@H](CS)NC(=O)[C@H](CCC(=O)O)NC(=O)[C@H](CCCCN)NC(=O)[C@H](CC(C)C)NC(=O)[C@H](CC(N)=O)NC(=O)[C@H](CC(N)=O)NC(=O)[C@H](CCCCN)NC(=O)[C@@H]1CCCN1C(=O)[C@H](C)NC(=O)[C@H](CC(C)C)NC(=O)[C@H](CC(C)C)NC(=O)[C@H](C)NC(=O)[C@H](CC(C)C)NC(=O)[C@H](CC(C)C)NC(=O)[C@@H](NC(=O)[C@H](C)NC(=O)[C@@H]1CCCN1C(=O)[C@H](CC(C)C)NC(=O)[C@H](CC(C)C)NC(=O)[C@H](C)NC(=O)[C@@H](NC(=O)[C@H](C)NC(=O)[C@H](C)NC(=O)CCC(=O)O)C(C)C)C(C)C)C(=O)N[C@@H](Cc1ccc(O)cc1)C(=O)O [Peptide 2-Suc] (Suc-AAVALLPAVLLALLAPKNNLKECGLY-OH; C-terminus assumed), the “Secretagogue (histamine secretion following incubation of mast cell with different concentrations of each peptide)” value ([1]; Table 1, peptide alone) is reported as “−”, the “histamine secretion from mast cells on incubation with increasing concentrations of peptide alone” value [1] is reported as “did not induce histamine secretion; also recorded: no stimulatory effect” and the “block of compound 48/80 induced allergic reaction in vivo, rat skin” value ([2]; intradermal peptide) is reported as “less effective than peptide 2”. For the same compound, the “Mean Wheal Area ± STD, Compound 48/80” value [2, 7] was 93.4 ± 32.0 (n = 11) mm^2, the “Mean Wheal Area ± STD, Vehicle” value [2, 8] was 56.8 ± 24.1 (n = 11) mm^2 and the “Mean Wheal Area ± STD, Compound 48/80” value [2, 9] was 89.3 ± 30.1 (n = 12) mm^2. For the same compound, the “Mean Wheal Area ± STD, Vehicle” value [2, 10] was 57.7 ± 23.2 (n = 12) mm^2, the “Mean Wheal Area ± STD, Compound 48/80” value [2, 11] was 73.8 ± 28.7 (n = 10) mm^2 and the “Mean Wheal Area ± STD, Vehicle” value [2, 12] was 57.2 ± 21.7 (n = 10) mm^2. The “Mean Wheal Area ± STD, Compound 48/80” value [2, 13] was 78.1 ± 28.3 (n = 12) mm^2, the “Mean Wheal Area ± STD, Vehicle” value [2, 14] was 54.3 ± 25.8 (n = 12) mm^2 and the “reduction” value [2, 15] was “significantly reduced the wheal”. For the same compound, the “reduction” value [2, 16] was “had no effect”, the “inhibition of IgE induced histamine secretion” value ([5]; 600 μg/ml peptide, DNP-BSA 100 ng/ml) was 90% and the “block of histamine secretion activated by an immunological trigger” value ([5]; DNP-specific IgE, DNP-BSA) was “effectively block histamine secretion”. For the same compound, the “IC50, compound 48/80 induced histamine secretion” value [3] was 200 µg/mL (≈ 72 µM), the “maximal inhibition of compound 48/80 induced histamine secretion” value ([3]; 600 μg/ml peptide, compound 48/80 concentration not given) was 80% and the “Inhibitor (degree of inhibition of histamine secretion from mast cells)” value [3] was “+++ (+++ Potent inhibitor (>85% inhibition))”. The “solubility” value [4] was “more soluble in the assay medium, as compared to peptide 2”.

With CC(C)C[C@H](NC(=O)CNC(=O)[C@H](CS)NC(=O)[C@H](CCC(=O)O)NC(=O)[C@H](CCCCN)NC(=O)[C@H](CC(C)C)NC(=O)[C@H](CC(N)=O)NC(=O)[C@H](CC(N)=O)NC(=O)[C@H](CCCCN)NC(=O)[C@@H]1CCCN1C(=O)[C@H](C)NC(=O)[C@H](CC(C)C)NC(=O)[C@H](CC(C)C)NC(=O)[C@H](C)NC(=O)[C@H](CC(C)C)NC(=O)[C@H](CC(C)C)NC(=O)[C@@H](NC(=O)[C@H](C)NC(=O)[C@@H]1CCCN1C(=O)[C@H](CC(C)C)NC(=O)[C@H](CC(C)C)NC(=O)[C@H](C)NC(=O)[C@@H](NC(=O)[C@H](C)NC(=O)[C@H](C)N)C(C)C)C(C)C)C(=O)N[C@@H](Cc1ccc(N)cc1)C(=O)O [WALL005] (H-AAVALLPAVLLALLAPKNNLKECGL[Phe(4-NH2)]-OH; N-terminus and C-terminus assumed) the “Secretagogue (histamine secretion following incubation of mast cell with different concentrations of each peptide)” value ([1]; Table 9, peptide alone) was “+”, the “histamine secretion from mast cells on incubation with increasing concentrations of peptide alone” value [1] was “resulted in histamine secretion” and the “solubility” value [4] was “severe solubility problems”.

With VTVLALGALAGVGVGKNNLKECGLY [Peptide 1] the “Secretagogue (histamine secretion following incubation of mast cell with different concentrations of each peptide)” value ([1]; Table 9, peptide alone) was “+”, the “histamine secretion from mast cells on incubation with increasing concentrations of peptide alone” value [1] was “resulted in histamine secretion” and the “stimulatory effect on histamine secretion” value ([1]; peptide alone, concentration range of up to 400 p.g/ml (FIG. 1A)) was “hardly any stimulatory effect”. For the same compound, the “solubility” value [4] was “no solubility problems”.

For VTVLALGALAGVGVGPKNNLKECGLY [WALL010], the “maximal inhibition of compound 48/80 induced histamine release” value ([3]; 200 μg/ml peptide) was 16.7%, the “Secretagogue (histamine secretion following incubation of mast cell with different concentrations of each peptide)” value [6] was “+” and the “histamine secretion from mast cells on incubation with increasing concentrations of peptide alone” value [6] was “resulted in histamine secretion”.
